Our source for the inhibition values is US7674801B2 (AstraZeneca AB, priority 2006, dated 2010).

This assay concerns the target S. aureus (SAU) GyrB ATPase (Staphylococcus aureus, UniProt P0A0K8). Kind of assay: S. aureus GyrB ATPase inhibition, ammonium molybdate/malachite green phosphate detection assay. The format is biochemical. Particulars: read-out: S. aureus (SAU) GyrB ATPase % Inhibition, compound concentration 12.5 μM. The essentials: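 Phosphate from ATP hydrolysis (500 μM ATP) read as malachite green/molybdate absorbance at 650 nm after acid quench. Reaction: 1.25 nM S. aureus GyrB plus 1.25 nM E. coli GyrA, sheared DNA, Hepes pH 7.5 with Mg2+. IC50 fitted over 10 concentrations, normalised to DMSO (2%) and novobiocin (2 μM) controls.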

Chain of S. aureus (SAU) GyrB ATPase (P0A0K8 whole entry): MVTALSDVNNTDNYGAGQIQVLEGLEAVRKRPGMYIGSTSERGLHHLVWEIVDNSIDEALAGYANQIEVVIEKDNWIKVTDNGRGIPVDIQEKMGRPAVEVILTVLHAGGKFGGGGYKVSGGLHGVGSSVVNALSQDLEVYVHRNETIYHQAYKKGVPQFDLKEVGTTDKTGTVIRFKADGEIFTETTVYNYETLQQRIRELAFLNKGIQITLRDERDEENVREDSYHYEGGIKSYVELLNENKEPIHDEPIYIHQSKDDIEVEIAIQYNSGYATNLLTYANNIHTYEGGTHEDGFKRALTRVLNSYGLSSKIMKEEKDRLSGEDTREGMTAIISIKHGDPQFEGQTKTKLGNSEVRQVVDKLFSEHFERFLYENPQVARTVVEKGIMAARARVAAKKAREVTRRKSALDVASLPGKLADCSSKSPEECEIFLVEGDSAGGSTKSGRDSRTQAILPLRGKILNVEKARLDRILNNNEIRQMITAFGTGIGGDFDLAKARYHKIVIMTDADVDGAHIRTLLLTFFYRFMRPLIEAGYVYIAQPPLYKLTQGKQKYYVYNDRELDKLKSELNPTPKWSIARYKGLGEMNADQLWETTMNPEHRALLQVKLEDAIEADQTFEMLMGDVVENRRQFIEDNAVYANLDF
Chain of S. aureus (SAU) GyrB ATPase (P0AES4 whole entry, further chain): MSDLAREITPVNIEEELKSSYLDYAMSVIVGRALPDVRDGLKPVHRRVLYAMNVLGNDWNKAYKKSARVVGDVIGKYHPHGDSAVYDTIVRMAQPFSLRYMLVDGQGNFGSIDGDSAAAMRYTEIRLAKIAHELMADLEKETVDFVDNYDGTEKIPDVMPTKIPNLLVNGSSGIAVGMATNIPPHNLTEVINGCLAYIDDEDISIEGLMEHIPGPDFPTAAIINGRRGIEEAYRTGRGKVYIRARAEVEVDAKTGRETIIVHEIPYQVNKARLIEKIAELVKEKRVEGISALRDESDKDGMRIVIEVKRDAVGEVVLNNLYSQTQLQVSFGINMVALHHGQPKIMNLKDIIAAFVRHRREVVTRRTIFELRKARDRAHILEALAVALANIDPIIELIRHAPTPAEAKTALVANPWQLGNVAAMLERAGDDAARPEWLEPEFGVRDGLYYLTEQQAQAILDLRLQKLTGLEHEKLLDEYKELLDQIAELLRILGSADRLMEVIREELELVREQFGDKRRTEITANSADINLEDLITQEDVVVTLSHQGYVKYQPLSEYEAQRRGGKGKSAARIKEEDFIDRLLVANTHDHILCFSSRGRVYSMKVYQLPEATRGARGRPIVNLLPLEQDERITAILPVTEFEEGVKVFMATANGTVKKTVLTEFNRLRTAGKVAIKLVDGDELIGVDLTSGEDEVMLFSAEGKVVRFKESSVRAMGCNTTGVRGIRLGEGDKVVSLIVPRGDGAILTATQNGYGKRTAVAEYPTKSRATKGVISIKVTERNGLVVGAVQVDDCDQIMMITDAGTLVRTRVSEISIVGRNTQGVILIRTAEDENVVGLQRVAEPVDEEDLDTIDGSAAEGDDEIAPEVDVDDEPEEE

With `CCNC(=O)Nc1cc(-c2nc(C(F)(F)F)cs2)c(-c2ncc(C(=O)O)s2)cn1` [Example 102, 2-{6-{[(Ethylamino)carbonyl]amino}-4-[4-(trifluoromethyl)-1,3-thiazol-2-yl]pyridin-3-yl}-1,3-thiazole-5-carboxylic acid], the inhibition at 12.5 µM was found to be 98.2%.

`CCNC(=O)Nc1cc(-c2cccnc2)c(-c2cncc(C(=O)O)c2)cn1` [Example 103, 6′-{[(Ethylamino)carbonyl]amino}-3,3′:4′,3″-terpyridine-5-carboxylic acid]: the inhibition at 12.5 µM is 96%.

Take `CCNC(=O)Nc1cc(-c2ccc(F)nc2)c(-c2cncc(C(=O)O)c2)cn1` [Example 104]: the inhibition at 12.5 µM was 89.9%.

For the molecule `CC(C)NC(=O)Nc1cc(-c2nc(C(F)(F)F)cs2)c(-c2cncc(C(=O)O)c2)cn1` [Example 105, 6′-{[(Isopropylamino)arbonyl]amino}-4′-[4-(trifluoromethyl)-1,3-thiazol-2-yl]-3,3′-bipyridine-5-carboxylic acid], the inhibition at 12.5 µM worked out at 94.8%.

Take `CCC(C)NC(=O)Nc1cc(-c2nc(C(F)(F)F)cs2)c(-c2cncc(C(=O)O)c2)cn1` (stereo not drawn) [Example 106, 6′-{[(Sec-butylamino)carbonyl]amino}-4′-[4-(trifluoromethyl)-1,3-thiazol-2-yl]-3,3′-bipyridine-5-carboxylic acid]: the inhibition at 12.5 µM was 93.1%.

`CCNC(=O)Nc1cc(-c2nc(CC)cs2)c(-c2cncc(C(=O)NC)c2)cn1` [Example 107, 6′-{[(Ethylamino)carbonyl]amino}-4′-(4-ethyl-1,3-thiazol-2-yl)-N-methyl-3,3′-bipyridine-5-carboxamide]: the inhibition at 12.5 µM stood at 84%.

For `CCCCNC(=O)c1nc(-c2ccc(NC(=O)NCC)nc2)sc1C(=O)NC` [Example 108, N^4-Butyl-2-(6-{[(ethylamino)carbonyl]amino}pyridin-3-yl)-N^5-methyl-1,3-thiazole-4,5-dicarboxamide], the inhibition at 12.5 µM was 100%.

Take `CCCCNC(=O)c1nc(-c2ccc(NC(=O)NCC)nc2)sc1C(=O)N(C)C` [Example 109, N^4-Butyl-2-(6-{[(ethylamino)carbonyl]amino}pyridin-3-yl)-N^5,N^5-dimethyl-1,3-thiazole-4,5-dicarboxamide]: the inhibition at 12.5 µM was 99.5%.

Regarding `CCNC(=O)Nc1ccc(-c2nc(C(=O)NC(C)(C)C)c(C(=O)N(C)C)s2)cn1` [Example 110, N^4-(tert-Butyl)-2-(6-{[(ethylamino)carbonyl]amino}pyridin-3-yl)-N^5,N^5-dimethyl-1,3-thiazole-4,5-dicarboxamide], the inhibition at 12.5 µM was determined as 101%.

As for `CCNC(=O)Nc1ccc(-c2nc(C(=O)NC(C)(C)C)c(C(N)=O)s2)cn1` [Example 111, N^4-(tert-Butyl)-2-(6-{[(ethylamino)carbonyl]amino}pyridin-3-yl)-1,3-thiazole-4,5-dicarboxamide], the inhibition at 12.5 µM was 101%.

Regarding `CCNC(=O)Nc1ccc(-c2nc(-c3nccn3C)c(C(=O)N(C)C)s2)cn1` [Example 112, 2-(6-{[(Ethylamino)carbonyl]amino}pyridin-3-yl)-N,N-dimethyl-4-(1-methyl-1H-imidazol-2-yl)-1,3-thiazole-5-carboxamide], the inhibition at 12.5 µM was 99.9%.

For `CCNC(=O)Nc1ccc(-c2nc(-c3ncnn3C)c(C(=O)N(C)C)s2)cn1` [Example 113, 2-(6-{[(Ethylamino)carbonyl]amino}pyridin-3-yl)-N,N-dimethyl-4-(1-methyl-1H-1,2,4-triazol-5-yl)-1,3-thiazole-5-carboxamide], the inhibition at 12.5 µM worked out at 102%.

Consider `CCNC(=O)Nc1cc(-c2ccccc2)c(-c2cncc(C(N)=O)c2)cn1` [Example 114, 6′-{[(Ethylamino)carbonyl]amino}-4′-phenyl-3,3′-bipyridine-5-carboxamide], for which the inhibition at 12.5 µM was 105%.

For the molecule `CCNC(=O)Nc1ccc(-c2nc(C(=O)NC)c(C(N)=O)s2)cn1` [Example 115, 2-(6-{[(Ethylamino)carbonyl]amino}pyridin-3-yl)-N^4-methyl-1,3-thiazole-4,5-dicarboxamide], the inhibition at 12.5 µM is 99.2%.

For the molecule `CCNC(=O)Nc1ccc(-c2nc(C(=O)NCCOC)c(C(N)=O)s2)cn1` [Example 116, 2-(6-{[(Ethylamino)carbonyl]amino}pyridin-3-yl)-N^4-(2-methoxyethyl)-1,3-thiazole-4,5-dicarboxamide], the inhibition at 12.5 µM was 98.7%.

As for `CCNC(=O)Nc1ccc(-c2nc(C(=O)N[C@@H](C)COC)c(C(N)=O)s2)cn1` [Example 117, 2-(6-{[(Ethylamino)carbonyl]amino}pyridin-3-yl)-N^4-[(1S)-2-methoxy-1-methylethyl]-1,3-thiazole-4,5-dicarboxamide], the inhibition at 12.5 µM was found to be 101%.

Regarding `CCNC(=O)Nc1ccc(-c2nc(C(=O)N[C@@H](C)COC)c(C(=O)N(C)C)s2)cn1` [Example 118, 2-(6-{[(Ethylamino)carbonyl]amino}pyridin-3-yl)-N^4-[(1S)-2-methoxy-1-methylethyl]-N^5,N^5-dimethyl-1,3-thiazole-4,5-dicarboxamide], the inhibition at 12.5 µM was found to be 102%.

In the case of `CCNC(=O)Nc1cc(-c2nc(CC)cs2)c(-c2cncc(C(N)=O)c2)cn1` [Example 119, 6′-{[(Ethylamino)carbonyl]amino}-4′-(4-ethyl-1,3-thiazol-2-yl)-3,3′-bipyridine-5-carboxamide], the inhibition at 12.5 µM came to 103%.

As for `CCNC(=O)Nc1cc(-c2nc(C(F)(F)F)cs2)c(-c2cncc(C(N)=O)c2)cn1` [Example 121, 6′-{[(Ethylamino)carbonyl]amino}-4′-[4-(trifluoromethyl)-1,3-thiazol-2-yl]-3,3′-bipyridine-5-carboxamide], the inhibition at 12.5 µM was found to be 81.8%.

As to `CCNC(=O)Nc1cc(-c2nc(C(F)(F)F)cs2)c(-c2cncc(C(=O)NC)c2)cn1` [Example 122, 6′-{[(Ethylamino)carbonyl]amino}-N-methyl-4′-[4-(trifluoromethyl)-1,3-thiazol-2-yl]-3,3′-bipyridine-5-carboxamide], the inhibition at 12.5 µM is 85.8%.

Turning to `CCNC(=O)Nc1cc(-c2nc(C(F)(F)F)cs2)c(-c2cncc(C(=O)NC(C)(C)C)c2)cn1` [Example 123, N-(tert-Butyl)-6′-{[(ethylamino)carbonyl]amino}-4′-[4-(trifluoromethyl)-1,3-thiazol-2-yl]-3,3′-bipyridine-5-carboxamide], the inhibition at 12.5 µM worked out at 96.2%.

Take `CCNC(=O)Nc1cc(-c2nc(C(F)(F)F)cs2)c(-c2cncc(C(=O)N[C@@H](C)COC)c2)cn1` [Example 124, 6′-{[(Ethylamino)carbonyl]amino}-N-[(1S)-2-methoxy-1-methylethyl]-4′-[4-(trifluoromethyl)-1,3-thiazol-2-yl]-3,3′-bipyridine-5-carboxamide]: the inhibition at 12.5 µM is 95.1%.

Consider `CCNC(=O)Nc1cc(-c2nc(C(F)(F)F)cs2)c(-c2cncc(C(=O)NC3CCCC3)c2)cn1` [Example 125, N-Cyclopentyl-6′-{[(ethylamino)carbonyl]amino}-4′-[4-(trifluoromethyl)-1,3-thiazol-2-yl]-3,3′-bipyridine-5-carboxamide], for which the inhibition at 12.5 µM was found to be 107%.

`CCNC(=O)Nc1cc(-c2nc(C(F)(F)F)cs2)c(-c2cncc(C(=O)NC3CC3)c2)cn1` [Example 126, N-Cyclopropyl-6′-{[(ethylamino)carbonyl]amino}-4′-[4-(trifluoromethyl)-1,3-thiazol-2-yl]-3,3′-bipyridine-5-carboxamide]: the inhibition at 12.5 µM turned out to be 96.2%.

Consider `CCNC(=O)Nc1cc(-c2nc(C(F)(F)F)cs2)c(-c2ncc(C(=O)NC)s2)cn1` [Example 127, 2-{6-{[(Ethylamino)carbonyl]amino}-4-[4-(trifluoromethyl)-1,3-thiazol-2-yl]pyridin-3-yl}-N-methyl-1,3-thiazole-5-carboxamide], for which the inhibition at 12.5 µM was determined as 97%.

Consider `CCNC(=O)Nc1cc(-c2ccc(F)nc2)c(-c2cncc(C(N)=O)c2)cn1` [Example 128, 6′-{[(Ethylamino)carbonyl]amino}-6″-fluoro-3,3′:4′,3″-terpyridine-5-carboxamide], for which the inhibition at 12.5 µM was determined as 91.5%.

As for `CNC(=O)c1cncc(-c2cnc(NC(=O)NC(C)C)cc2-c2nc(C(F)(F)F)cs2)c1` [Example 129, 6′-{[(Isopropylamino)carbonyl]amino}-N-methyl-4′-[4-(trifluoromethyl)-1,3-thiazol-2-yl]-3,3′-bipyridine-5-carboxamide], the inhibition at 12.5 µM was 100%.

As for `CCC(C)NC(=O)Nc1cc(-c2nc(C(F)(F)F)cs2)c(-c2cncc(C(=O)NC)c2)cn1` (stereo not drawn) [Example 130, 6′-{[(Sec-butylamino)carbonyl]amino}-N-methyl-4′-[4-(trifluoromethyl)-1,3-thiazol-2-yl]-3,3′-bipyridine-5-carboxamide], the inhibition at 12.5 µM was 98.7%.

Take `CCNC(=O)Nc1nc(-c2cccc(C(=O)OC)c2)cs1` [Example 134, methyl 3-(2-{[(ethylamino)carbonyl]amino}-1,3-thiazol-4-yl)benzoate]: the inhibition at 12.5 µM turned out to be 7.09%.

Turning to `CCNC(=O)Nc1ncc(-c2nc3cccc(C(=O)OCC)c3s2)cn1` [Example 135, ethyl 2-(2-{[(ethylamino)carbonyl]amino}pyrimidin-5-yl)-1,3-benzothiazole-7-carboxylate], the inhibition at 12.5 µM turned out to be 0.52%.

In the case of `CCNC(=O)Nc1ccc(-c2cccc3nc(C(=O)OCC)cn23)cn1` [Example 136, ethyl 5-(6-{[(ethylamino)carbonyl]amino}pyridin-3-yl)imidazo[1,2-a]pyridine-2-carboxylate], the inhibition at 12.5 µM was found to be 61%.

Take `CCNC(=O)Nc1cc(-c2cccc(C(=O)OCC)c2)ccn1` [Example 137, ethyl 3-(2-{[(ethylamino)carbonyl]amino}pyridin-4-yl)benzoate]: the inhibition at 12.5 µM worked out at 86.9%.

As to `CCNC(=O)Nc1cc(-c2ccc(C(=O)OCC)cc2)ccn1` [Example 138, ethyl 4-(2-{[(ethylamino)carbonyl]amino}pyridin-4-yl)benzoate], the inhibition at 12.5 µM worked out at 94.8%.
